{"source": "patent US7071340B2", "about": "“Fungicidal 1-benzoxepin derivatives” (Bayer Cropscience S.A., priority 2001, dated 2006)", "key": {"Septoria nodorum": {"test_system": "Septoria nodorum", "assay": "Biological test on isolated fungi in culture medium, 96-well microplates (Example B2)", "format": "cell-based", "details": "Parastagonospora nodorum, 120 h; dose of 50 ppm; culturing 5 days at 20° C.; optical density at 620 nm or 405 nm; read-out: inhibition of Septoria nodorum (percentage of inhibition of the growth, Abbott's formula)", "protocol": "(§1) The test is carried out on isolated fungi in a culture medium, in 96-well microplates. The products are dissolved in acetonitrile and are then diluted to 1/50th in methanol, so as to distribute 50 μl for a dose of 50 ppm in each well. Once the compounds are distributed, the microplates are dried under a stream of nitrogen at 40° C. The culture medium and the inoculum are subsequently added.\n(§2) The growth of the fungi is measured after culturing for 5 days at 20° C. by reading the optical density at 620 nm or 405 nm, depending on the strains. The effectiveness of the product is the percentage of inhibition of the growth of the fungi calculated according to Abbott's formula, the absorbance of the growth control wells and the absorbance of the treated wells being taken as reference values.\nAt a dose of 50 ppm, complete or good (at least 70%) inhibition of Septoria nodorum is observed with the compounds described in the following examples: 5, 28, 29, 30, 32, 33, 34, 40, 55, 57, 63, 65, 67, 68, 70, 72, 82 and 86."}, "[1]": {"test_system": "Mycosphaerella graminacola", "assay": "Biological test on isolated fungi in culture medium, 96-well microplates (Example B7)", "format": "cell-based", "details": "120 h, dose of 50 ppm, culturing 5 days at 20° C., optical density at 620 nm or 405 nm, read-out: inhibition of Mycosphaerella graminacola (percentage of inhibition of the growth, Abbott's formula)", "protocol": "as §1, §2\nAt a dose of 50 ppm, complete or good (at least 70%) inhibition of Mycosphaerella graminacola is observed with the compounds described in the following examples: 28, 32, 55 and 70."}, "Venturia pirina": {"test_system": "Venturia pirina", "assay": "Biological test on isolated fungi in culture medium, 96-well microplates (Example B8)", "format": "cell-based", "details": "Venturia pyrina, 120 h; dose of 50 ppm; culturing 5 days at 20° C.; optical density at 620 nm or 405 nm; read-out: inhibition of Venturia pirina (percentage of inhibition of the growth, Abbott's formula)", "protocol": "as §1, §2\nAt a dose of 50 ppm, complete or good (at least 70%) inhibition of Venturia pirina is observed with the compounds described in the following example: 28."}, "Monilia fructigena": {"test_system": "Monilia fructigena", "assay": "Biological test on isolated fungi in culture medium, 96-well microplates (Example B3)", "format": "cell-based", "details": "120 h, dose of 50 ppm, culturing 5 days at 20° C., optical density at 620 nm or 405 nm, read-out: inhibition of Monilia fructigena (percentage of inhibition of the growth, Abbott's formula)", "protocol": "as §1, §2\nAt a dose of 50 ppm, complete or good (at least 70%) inhibition of Monilia fructigena is observed with the compounds described in the following examples: 28, 32 and 70."}, "Magnaporthe orysae": {"test_system": "Magnaporthe orysae", "assay": "tissue or blood", "format": "cell-based", "details": "120 h, read-out: inhibition of Magnaporthe orysae (percentage of inhibition of the growth, Abbott's formula)"}, "Rhizoctonia solani": {"test_system": "Rhizoctonia solani", "assay": "Biological test on isolated fungi in culture medium, 96-well microplates (Example B6)", "format": "cell-based", "details": "120 h, dose of 50 ppm, culturing 5 days at 20° C., optical density at 620 nm or 405 nm, read-out: inhibition of Rhizoctonia solani (percentage of inhibition of the growth, Abbott's formula)", "protocol": "as §1, §2\nAt a dose of 50 ppm, complete or good (at least 70%) inhibition of Rhizoctonia solani is observed with the compounds described in the following examples: 28, 32, 55, 68 and 70."}, "Botrytis cinerea": {"test_system": "Botrytis cinerea", "assay": "Biological test on isolated fungi in culture medium, 96-well microplates (Example B1)", "format": "cell-based", "details": "120 h, dose of 50 ppm, culturing 5 days at 20° C., optical density at 620 nm or 405 nm, read-out: inhibition of Botrytis cinerea (percentage of inhibition of the growth, Abbott's formula)", "protocol": "as §1, §2\nAt a dose of 50 ppm, complete or good (at least 70%) inhibition of Botrytis cinerea is observed with the compounds described in the following examples: 28, 32, 47, 65, 68 and 70."}}, "data": [{"smiles": "C=C1C=Cc2cc(C(=O)O)ccc2OC1", "note": "[Example 40, 3-methylene-2,3-dihydro-1-benzoxepin-7-carboxylic acid]", "values": [{"measurement": "inhibition at 50 ppm", "setting": "Septoria nodorum", "value": "≥ 70", "unit": "%"}, {"measurement": "melting point", "value": 188, "unit": "°C"}]}, {"smiles": "CC(=O)c1ccc2c(c1)C(Cc1ccccc1)=CC(=CCl)CO2", "note": "[Example 30, 1-[5-benzyl-3-(chloromethylene)-2,3-dihydro-1-benzoxepin-7-yl]ethanone]", "values": [{"measurement": "inhibition at 50 ppm", "setting": "Septoria nodorum", "value": "≥ 70", "unit": "%"}]}, {"smiles": "CC(=O)c1ccc2c(c1)C(Cc1ccccc1)=CC(=O)CO2", "note": "[Example 29, 7-acetyl-5-benzyl-1-benzoxepin-3(2H)-one]", "values": [{"measurement": "inhibition at 50 ppm", "setting": "Septoria nodorum", "value": "≥ 70", "unit": "%"}]}, {"smiles": "COC(=O)c1ccc2c(c1)C(Cc1ccccc1)=CC(=O)CO2", "note": "[Example 33, methyl 5-benzyl-3-oxo-2,3-dihydro-1-benzoxepin-7-carboxylate]", "values": [{"measurement": "inhibition at 50 ppm", "setting": "Septoria nodorum", "value": "≥ 70", "unit": "%"}]}, {"smiles": "COC(=O)c1ccc2c(c1)CCC(=CCl)CO2", "note": "[Example 5, methyl 3-(chloromethylene)-2,3,4,5-tetrahydro-1-benzoxepin-7-carboxylate]", "values": [{"measurement": "inhibition at 50 ppm", "setting": "Septoria nodorum", "value": "≥ 70", "unit": "%"}]}, {"smiles": "CC(=O)c1ccc2c(c1)C=CC(=CCl)CO2", "note": "[Example 28, 1-[3-(chloromethylene)-2,3-dihydro-1-benzoxepin-7-yl]ethanone]", "values": [{"measurement": "inhibition at 50 ppm", "setting": "[1]", "value": "≥ 70", "unit": "%"}, {"measurement": "inhibition at 50 ppm", "setting": "Septoria nodorum", "value": "≥ 70", "unit": "%"}, {"measurement": "inhibition at 50 ppm", "setting": "Venturia pirina", "value": "≥ 70", "unit": "%"}, {"measurement": "inhibition at 50 ppm", "setting": "Monilia fructigena", "value": "≥ 70", "unit": "%"}, {"measurement": "inhibition at 50 ppm", "setting": "Magnaporthe orysae", "value": "≥ 70", "unit": "%"}, {"measurement": "inhibition at 50 ppm", "setting": "Rhizoctonia solani", "value": "≥ 70", "unit": "%"}, {"measurement": "inhibition at 50 ppm", "setting": "Botrytis cinerea", "value": "≥ 70", "unit": "%"}]}, {"smiles": "COC(=O)c1ccc2c(c1)C=CC(=CCl)CO2", "note": "[Example 32, methyl 3-(chloromethylene)-2,3-dihydro-1-benzoxepin-7-carboxylate]", "values": [{"measurement": "inhibition at 50 ppm", "setting": "[1]", "value": "≥ 70", "unit": "%"}, {"measurement": "inhibition at 50 ppm", "setting": "Septoria nodorum", "value": "≥ 70", "unit": "%"}, {"measurement": "melting point", "value": "72 to 77", "unit": "°C"}, {"measurement": "inhibition at 50 ppm", "setting": "Monilia fructigena", "value": "≥ 70", "unit": "%"}, {"measurement": "inhibition at 50 ppm", "setting": "Magnaporthe orysae", "value": "≥ 70", "unit": "%"}, {"measurement": "inhibition at 50 ppm", "setting": "Rhizoctonia solani", "value": "≥ 70", "unit": "%"}, {"measurement": "inhibition at 50 ppm", "setting": "Botrytis cinerea", "value": "≥ 70", "unit": "%"}]}, {"smiles": "CC(=O)c1ccc2c(c1)CCC(=O)CO2", "note": "[Example 16, 7-acetyl-4,5-dihydro-1-benzoxepin-3(2H)-one]", "values": [{"measurement": "melting point", "value": "80 to 82", "unit": "°C"}]}, {"smiles": "C=C1COc2ccc(C(C)=O)cc2C(Cc2ccccc2)(S(=O)(=O)c2ccccc2)C1", "note": "(stereo not shown) [Example 18, 1-[5-benzyl-3-methylene-5-(phenylsulfonyl)-2,3,4,5-tetrahydro-1-benzoxepin-7-yl]ethanone]", "values": [{"measurement": "melting point", "value": "131 to 132", "unit": "°C"}]}, {"smiles": "O=C(O)c1ccc2c(c1)C=CC(=CCl)CO2", "note": "[Example 63, 3-(chloromethylene)-2,3-dihydro-1-benzoxepin-7-carboxylic acid]", "values": [{"measurement": "inhibition at 50 ppm", "setting": "Septoria nodorum", "value": "≥ 70", "unit": "%"}, {"measurement": "melting point", "value": "> 260", "unit": "°C"}]}, {"smiles": "COC(=O)c1ccc2c(c1)C=CC(=O)CO2", "note": "[Example 31, methyl 3-oxo-2,3-dihydro-1-benzoxepin-7-carboxylate]", "values": [{"measurement": "melting point", "value": 98, "unit": "°C"}]}, {"smiles": "C=C1C=Cc2cc(C(=O)Nc3ccccc3)ccc2OC1", "note": "[Example 41, 3-methylene-N-phenyl-2,3-dihydro-1-benzoxepin-7-carboxamide]", "values": [{"measurement": "melting point", "value": 139, "unit": "°C"}]}, {"smiles": "COC(=O)c1ccc2c(c1)C=CC(=C(Cl)Cl)CO2", "note": "[Example 54, methyl 3-(dichloromethylene)-2,3-dihydro-1-benzoxepin-7-carboxylate]", "values": [{"measurement": "melting point", "value": "119 to 121", "unit": "°C"}]}, {"smiles": "COC(=O)c1ccc2c(c1)C(Cc1ccccc1)=CC(=CCl)CO2", "note": "[Example 34, methyl 5-benzyl-3-(chloromethylene)-2,3-dihydro-1-benzoxepin-7-carboxylate]", "values": [{"measurement": "inhibition at 50 ppm", "setting": "Septoria nodorum", "value": "≥ 70", "unit": "%"}]}, {"smiles": "C=C1COc2ccc(C(=O)OC)cc2C(Cc2ccccc2)(S(=O)(=O)c2ccccc2)C1", "note": "(stereo not shown) [Example 6, methyl 5-benzyl-3-methylene-5-(phenylsulfonyl)-2,3,4,5-tetrahydro-1-benzoxepin-7-carboxylate]", "values": [{"measurement": "melting point", "value": "164 to 165", "unit": "°C"}]}, {"smiles": "O=Cc1ccc2c(c1)C=CC(=CCl)CO2", "note": "[Example 72, 3-(chloromethylene)-2,3-dihydro-1-benzoxepin-7-carbaldehyde]", "values": [{"measurement": "inhibition at 50 ppm", "setting": "Septoria nodorum", "value": "≥ 70", "unit": "%"}]}, {"smiles": "C=C1COc2ccc(C(C)=O)cc2C(S(=O)(=O)c2ccccc2)C1", "note": "(stereo not shown) [Example 13, 1-[3-methylene-5-(phenylsulfonyl)-2,3,4,5-tetrahydro-1-benzoxepin-7-yl]ethanone]", "values": [{"measurement": "melting point", "value": "124 to 125", "unit": "°C"}]}]}
